Assay results taken from US11981658B2, “Substituted aminopyridine compounds as EGFR inhibitors” (YUHAN CORPORATION, priority 2021, dated 2024).
Read-outs that look alike come from different tables or passages of the source.

Assays:
[1] = biological target: EGFR Del19/T790M/C797S (Homo sapiens, UniProt P00533, C797S/DEL746-750/T790M); assay: Biochemical EGFR kinase inhibition assay (Lance Ultra TR-FRET), triple mutant del19/T790M/C797S
How it was run: (§1)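 Kinase activity is measured by TR-FRET phosphopeptide detection. Compounds span 0.003 μM to 10 μM; the 1 h reaction at room temperature is quenched with EDTA, then labelled antibody (2 nM) is incubated 60 min before reading.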

[2] = biological target: EGFR wildtype (WT) (Homo sapiens, UniProt P00533); assay: Biochemical EGFR kinase inhibition assay (Lance Ultra TR-FRET), wildtype
How it was run: as §1

[3] = biological target: EGFR L858R/C797S (Homo sapiens, UniProt P00533, C797S/L858R); assay: Biochemical EGFR kinase inhibition assay (Lance Ultra TR-FRET), double mutant L858R/C797S
How it was run: as §1

[4] = biological target: EGFR L858R/T790M/C797S (Homo sapiens, UniProt P00533, C797S/L858R/T790M); assay: Biochemical EGFR kinase inhibition assay (Lance Ultra TR-FRET), triple mutant L858R/T790M/C797S
How it was run: as §1

[5] = biological target: EGFR Del19/C797S (Homo sapiens, UniProt P00533, C797S/DEL746-750); assay: Biochemical EGFR kinase inhibition assay (Lance Ultra TR-FRET), double mutant del19/C797S
How it was run: as §1

[6] = IC50 Del19/T790M/C797S (nM), 100 μM ATP
[7] = Km ATP, read-out: IC50 Del19/T790M/C797S (nM), Km ATP
[8] = Km ATP, read-out: IC50 WT (nM), Km ATP
[9] = IC50 L858R/C797S (nM), 100 μM ATP
[10] = Km ATP, read-out: IC50 L858R/C797S (nM), Km ATP
[11] = IC50 L858R/T790M/C797S (nM), 100 μM ATP
[12] = Km ATP, read-out: IC50 L858R/T790M/C797S (nM), Km ATP
[13] = IC50 Del19/C797S (nM), 100 μM ATP
[14] = Km ATP, read-out: IC50 Del19/C797S (nM), Km ATP

Chain of EGFR L858R/T790M/C797S (P00533 25-1210 T790M/C797S/L858R): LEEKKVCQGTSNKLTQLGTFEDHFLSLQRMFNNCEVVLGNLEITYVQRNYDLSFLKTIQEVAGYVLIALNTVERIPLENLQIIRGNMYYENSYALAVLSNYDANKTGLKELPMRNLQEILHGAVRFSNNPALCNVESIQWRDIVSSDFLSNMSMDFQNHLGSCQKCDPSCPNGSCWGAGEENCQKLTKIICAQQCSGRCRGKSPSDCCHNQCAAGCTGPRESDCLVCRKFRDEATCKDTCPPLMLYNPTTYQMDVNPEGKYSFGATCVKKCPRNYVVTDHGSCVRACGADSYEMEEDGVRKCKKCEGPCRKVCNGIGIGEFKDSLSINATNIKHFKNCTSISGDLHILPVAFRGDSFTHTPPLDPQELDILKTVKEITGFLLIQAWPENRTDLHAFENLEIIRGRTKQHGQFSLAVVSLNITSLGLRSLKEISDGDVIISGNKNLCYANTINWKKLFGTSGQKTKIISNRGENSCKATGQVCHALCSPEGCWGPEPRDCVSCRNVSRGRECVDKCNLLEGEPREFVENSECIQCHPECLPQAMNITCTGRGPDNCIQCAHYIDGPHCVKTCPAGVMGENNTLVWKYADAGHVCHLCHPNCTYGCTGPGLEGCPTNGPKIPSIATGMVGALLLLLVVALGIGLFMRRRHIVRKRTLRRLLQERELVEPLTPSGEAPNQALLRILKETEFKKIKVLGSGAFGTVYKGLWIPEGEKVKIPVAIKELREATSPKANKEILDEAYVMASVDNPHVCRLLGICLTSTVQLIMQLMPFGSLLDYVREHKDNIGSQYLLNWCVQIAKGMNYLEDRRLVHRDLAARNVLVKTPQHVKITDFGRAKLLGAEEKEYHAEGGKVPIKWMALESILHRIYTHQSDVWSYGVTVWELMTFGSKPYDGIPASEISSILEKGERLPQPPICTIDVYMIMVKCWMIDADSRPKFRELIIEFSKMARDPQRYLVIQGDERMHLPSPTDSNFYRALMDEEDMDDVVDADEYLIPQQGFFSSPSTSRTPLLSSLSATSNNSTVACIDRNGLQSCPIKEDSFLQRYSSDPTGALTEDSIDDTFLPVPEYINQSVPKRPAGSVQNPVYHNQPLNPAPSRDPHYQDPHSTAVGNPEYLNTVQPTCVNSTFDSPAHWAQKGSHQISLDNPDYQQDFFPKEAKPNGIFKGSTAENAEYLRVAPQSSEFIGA
Chain of EGFR Del19/C797S (P00533 with tags, fused parts or gaps DEL746-750/C797S): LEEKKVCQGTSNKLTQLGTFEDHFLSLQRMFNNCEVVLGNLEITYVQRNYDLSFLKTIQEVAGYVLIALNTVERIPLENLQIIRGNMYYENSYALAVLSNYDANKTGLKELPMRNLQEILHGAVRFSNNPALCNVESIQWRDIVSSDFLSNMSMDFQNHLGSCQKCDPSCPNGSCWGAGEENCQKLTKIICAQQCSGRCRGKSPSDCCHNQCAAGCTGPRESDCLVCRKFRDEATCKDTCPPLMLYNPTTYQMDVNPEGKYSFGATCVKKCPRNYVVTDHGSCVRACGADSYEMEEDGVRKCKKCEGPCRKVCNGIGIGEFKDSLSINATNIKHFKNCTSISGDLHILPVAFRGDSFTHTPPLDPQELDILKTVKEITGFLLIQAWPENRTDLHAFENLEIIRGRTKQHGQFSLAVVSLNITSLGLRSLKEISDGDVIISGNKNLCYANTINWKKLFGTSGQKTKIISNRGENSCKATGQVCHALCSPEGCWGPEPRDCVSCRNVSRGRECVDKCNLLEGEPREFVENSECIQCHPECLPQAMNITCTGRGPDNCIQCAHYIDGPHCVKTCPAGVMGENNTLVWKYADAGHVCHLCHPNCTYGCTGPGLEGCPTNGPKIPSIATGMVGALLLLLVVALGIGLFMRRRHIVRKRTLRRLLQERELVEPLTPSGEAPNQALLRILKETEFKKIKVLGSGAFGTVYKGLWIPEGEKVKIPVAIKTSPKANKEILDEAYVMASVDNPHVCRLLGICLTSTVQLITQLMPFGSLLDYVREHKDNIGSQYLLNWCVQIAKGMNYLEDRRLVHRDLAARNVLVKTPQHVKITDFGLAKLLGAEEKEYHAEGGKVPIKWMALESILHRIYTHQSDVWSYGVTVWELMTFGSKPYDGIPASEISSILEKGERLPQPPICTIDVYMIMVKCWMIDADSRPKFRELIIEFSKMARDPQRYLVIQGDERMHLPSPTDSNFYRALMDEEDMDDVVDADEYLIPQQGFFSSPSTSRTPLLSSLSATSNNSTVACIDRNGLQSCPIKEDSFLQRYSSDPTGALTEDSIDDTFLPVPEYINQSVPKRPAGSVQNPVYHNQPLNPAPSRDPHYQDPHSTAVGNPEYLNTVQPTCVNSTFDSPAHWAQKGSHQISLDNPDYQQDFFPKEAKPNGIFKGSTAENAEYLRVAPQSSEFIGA
Chain of EGFR L858R/C797S (P00533 25-1210 C797S/L858R): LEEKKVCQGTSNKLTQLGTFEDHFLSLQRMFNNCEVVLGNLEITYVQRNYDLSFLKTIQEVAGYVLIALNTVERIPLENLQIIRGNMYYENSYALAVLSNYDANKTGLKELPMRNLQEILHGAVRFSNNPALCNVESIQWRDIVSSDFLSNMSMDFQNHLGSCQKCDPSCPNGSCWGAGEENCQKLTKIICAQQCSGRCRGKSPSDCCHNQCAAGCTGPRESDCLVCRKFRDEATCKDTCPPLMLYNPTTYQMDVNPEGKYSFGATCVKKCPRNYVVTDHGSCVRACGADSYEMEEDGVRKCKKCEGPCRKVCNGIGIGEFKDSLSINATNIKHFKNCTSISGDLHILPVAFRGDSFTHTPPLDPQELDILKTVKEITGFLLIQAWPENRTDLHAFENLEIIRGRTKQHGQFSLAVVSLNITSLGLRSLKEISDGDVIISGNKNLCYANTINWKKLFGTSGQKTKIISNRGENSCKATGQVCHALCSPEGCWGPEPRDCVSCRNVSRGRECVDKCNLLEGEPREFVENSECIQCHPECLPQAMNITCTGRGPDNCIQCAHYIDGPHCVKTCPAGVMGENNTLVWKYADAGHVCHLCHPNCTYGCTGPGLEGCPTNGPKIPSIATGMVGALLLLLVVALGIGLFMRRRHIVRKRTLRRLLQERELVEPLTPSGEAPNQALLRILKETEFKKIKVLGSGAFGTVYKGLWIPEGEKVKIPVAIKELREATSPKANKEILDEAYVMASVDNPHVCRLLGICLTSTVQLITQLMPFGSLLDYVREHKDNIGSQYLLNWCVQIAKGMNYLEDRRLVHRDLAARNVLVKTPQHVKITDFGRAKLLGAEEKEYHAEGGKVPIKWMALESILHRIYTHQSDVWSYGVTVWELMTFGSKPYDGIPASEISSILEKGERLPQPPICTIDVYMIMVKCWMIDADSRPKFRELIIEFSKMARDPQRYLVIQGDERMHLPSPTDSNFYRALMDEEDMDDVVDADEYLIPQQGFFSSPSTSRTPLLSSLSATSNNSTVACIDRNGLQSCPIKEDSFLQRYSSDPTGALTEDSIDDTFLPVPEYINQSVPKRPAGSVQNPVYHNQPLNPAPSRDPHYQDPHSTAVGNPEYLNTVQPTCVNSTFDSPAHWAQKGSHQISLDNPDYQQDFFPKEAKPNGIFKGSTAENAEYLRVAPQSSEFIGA
Chain of EGFR wildtype (WT) (P00533 25-1210): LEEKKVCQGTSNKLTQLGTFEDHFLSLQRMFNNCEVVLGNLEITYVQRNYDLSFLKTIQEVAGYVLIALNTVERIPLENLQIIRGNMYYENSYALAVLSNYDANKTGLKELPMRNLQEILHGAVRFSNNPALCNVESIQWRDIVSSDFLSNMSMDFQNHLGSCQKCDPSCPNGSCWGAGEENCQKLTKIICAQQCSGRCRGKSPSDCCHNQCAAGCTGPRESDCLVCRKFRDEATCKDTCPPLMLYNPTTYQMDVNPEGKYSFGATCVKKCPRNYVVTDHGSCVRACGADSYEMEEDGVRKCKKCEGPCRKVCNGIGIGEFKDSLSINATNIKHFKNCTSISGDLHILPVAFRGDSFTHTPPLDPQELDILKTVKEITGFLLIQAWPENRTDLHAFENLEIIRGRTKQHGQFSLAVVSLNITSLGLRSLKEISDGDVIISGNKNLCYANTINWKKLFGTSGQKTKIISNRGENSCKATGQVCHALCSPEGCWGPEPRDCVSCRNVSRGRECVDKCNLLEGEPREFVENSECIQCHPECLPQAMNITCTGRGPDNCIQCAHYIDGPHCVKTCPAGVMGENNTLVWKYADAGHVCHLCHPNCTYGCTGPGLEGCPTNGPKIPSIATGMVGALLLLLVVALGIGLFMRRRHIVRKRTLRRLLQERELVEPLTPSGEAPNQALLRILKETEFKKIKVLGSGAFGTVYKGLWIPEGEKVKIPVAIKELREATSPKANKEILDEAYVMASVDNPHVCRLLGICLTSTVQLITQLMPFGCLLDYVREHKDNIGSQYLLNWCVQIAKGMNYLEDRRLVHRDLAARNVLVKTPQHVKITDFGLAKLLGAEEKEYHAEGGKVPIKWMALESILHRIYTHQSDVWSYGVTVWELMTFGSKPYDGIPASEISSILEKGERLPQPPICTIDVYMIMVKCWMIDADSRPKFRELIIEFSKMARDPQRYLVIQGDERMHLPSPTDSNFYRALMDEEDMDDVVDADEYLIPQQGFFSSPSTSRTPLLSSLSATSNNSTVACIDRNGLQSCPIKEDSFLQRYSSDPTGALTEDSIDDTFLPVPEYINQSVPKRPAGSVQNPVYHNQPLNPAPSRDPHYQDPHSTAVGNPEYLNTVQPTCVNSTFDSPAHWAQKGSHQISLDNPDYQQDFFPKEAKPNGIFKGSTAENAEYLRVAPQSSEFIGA

SMILES	IC50 [1, 6]	IC50 [1, 7]	IC50 ([2]; IC50 WT (nM), 100 μM ATP)	IC50 [2, 8]	IC50 [3, 9]	IC50 [3, 10]	IC50 [4, 11]	IC50 [4, 12]	IC50 [5, 13]	IC50 [5, 14]
CN1CCN(Cc2ccc(C#Cc3cnc(Nc4ccnc(-c5cnn(S(=O)(=O)C6CC6)c5)n4)cc3N[C@H]3CC[C@]4(CCC(=O)N4)CC3)cc2)CC1 [Example 362, (5s,8s)-8-((2-((2-(1-(Cyclopropylsulfonyl)-1H-pyrazol-4-yl)pyrimidin-4-yl)amino)-5-((4-((4-methylpiperazin-1-yl)methyl)phenyl)ethynyl)pyridin-4-yl)amino)-1-azaspiro[4.5]decan-2-one]	0.7 nM	0.5 nM	4900 nM	10.7 nM	3.2 nM	0.9 nM	0.6 nM	0.1 nM	1.7 nM	1.1 nM
CN1CCN(Cc2ccc(C#Cc3cnc(Nc4ccnc(-c5cnn(S(=O)(=O)C6CC6)c5)n4)cc3NC[C@H]3CC[C@](C)(O)CC3)cc2)CC1 [Example 363, (1r,4r)-4-(((2-((2-(1-(Cyclopropylsulfonyl)-1H-pyrazol-4-yl)pyrimidin-4-yl)amino)-5-((4-((4-methylpiperazin-1-yl)methyl)phenyl)ethynyl)pyridin-4-yl)amino)methyl)-1-methylcyclohexan-1-ol]	1.2 nM		> 10000 nM		94.9 nM		2.4 nM		8.2 nM	
CC1(O)CCN(c2cc(Nc3ccnc(-c4cnn(S(=O)(=O)C5CC5)c4)n3)ncc2C#Cc2ncc(CN3CCOCC3)cn2)CC1 [Example 364, 1-(2-((2-(1-(Cyclopropylsulfonyl)-1H-pyrazol-4-yl)pyrimidin-4-yl)amino)-5-((5-(morpholinomethyl)pyrimidin-2-yl)ethynyl)pyridin-4-yl)-4-methylpiperidin-4-ol]	0.3 nM	0.2 nM	2530 nM	7.5 nM	12.9 nM	2.1 nM	0.6 nM	0.1 nM	1.3 nM	1.4 nM
COC1(O)CCN(c2cc(Nc3ccnc(-c4cnn(S(=O)(=O)C5CC5)c4)n3)ncc2C#Cc2ncc(CN3CCOCC3)cn2)CC1 [Example 365, 1-(2-((2-(1-(Cyclopropylsulfonyl)-1H-pyrazol-4-yl)pyrimidin-4-yl)amino)-5-((5-(morpholinomethyl)pyrimidin-2-yl)ethynyl)pyridin-4-yl)-4-methoxypiperidin-4-ol]	0.7 nM	0.4 nM	> 10000 nM	10.5 nM	46.6 nM	3.9 nM	1.3 nM	0.1 nM	3.5 nM	3.3 nM
O=S(=O)(C1CC1)n1cc(-c2nccc(Nc3cc(N4CCC5(CCCO5)CC4)c(C#Cc4ncc(CN5CCOCC5)cn4)cn3)n2)cn1 [Example 366, 2-(1-(Cyclopropylsulfonyl)-1H-pyrazol-4-yl)-N-(5-((5-(morpholinomethyl)pyrimidin-2-yl)ethynyl)-4-(1-oxa-8-azaspiro[4.5]decan-8-yl)pyridin-2-yl)pyrimidin-4-amine]	0.5 nM	0.3 nM	> 10000 nM	7.2 nM	16.7 nM	2.9 nM	1.1 nM	0.1 nM	4.4 nM	2.5 nM
O=S(=O)(C1CC1)n1cc(-c2nccc(Nc3cc(N4CCC5(CCO5)CC4)c(C#Cc4ncc(CN5CCOCC5)cn4)cn3)n2)cn1 [Example 367, 2-(1-(Cyclopropylsulfonyl)-1H-pyrazol-4-yl)-N-(5-((5-(morpholinomethyl)pyrimidin-2-yl)ethynyl)-4-(1-oxa-7-azaspiro[3.5]nonan-7-yl)pyridin-2-yl)pyrimidin-4-amine]	0.4 nM	0.3 nM	> 10000 nM	7.6 nM	25.6 nM	3.9 nM	1.2 nM	0.1 nM	3.5 nM	1.6 nM
CN1CCN(Cc2ccc(C#Cc3cnc(Nc4ccnc(-c5cnn(S(=O)(=O)C6CC6)c5)n4)cc3N3CCC(C)(O)CC3)cc2)CC1 [Example 368, 1-(2-((2-(1-(Cyclopropylsulfonyl)-1H-pyrazol-4-yl)pyrimidin-4-yl)amino)-5-((4-((4-methylpiperazin-1-yl)methyl)phenyl)ethynyl)pyridin-4-yl)-4-methylpiperidin-4-ol]	0.4 nM	0.4 nM	197 nM	0.8 nM	1.4 nM	0.7 nM	0.2 nM	0.1 nM	0.7 nM	0.6 nM
COC1(O)CCN(c2cc(Nc3ccnc(-c4cnn(S(=O)(=O)C5CC5)c4)n3)ncc2C#Cc2ccc(CN3CCN(C)CC3)cc2)CC1 [Example 369, 1-(2-((2-(1-(Cyclopropylsulfonyl)-1H-pyrazol-4-yl)pyrimidin-4-yl)amino)-5-((4-((4-methylpiperazin-1-yl)methyl)phenyl)ethynyl)pyridin-4-yl)-4-methoxypiperidin-4-ol]	0.4 nM	0.9 nM	1200 nM	3.1 nM	6.4 nM	2.4 nM	0.4 nM	0.3 nM	2 nM	1.9 nM
CN1CCN(Cc2ccc(C#Cc3cnc(Nc4ccnc(-c5cnn(S(=O)(=O)C6CC6)c5)n4)cc3N3CCC4(CCO4)CC3)cc2)CC1 [Example 370, 2-(1-(Cyclopropylsulfonyl)-1H-pyrazol-4-yl)-N-(5-((4-((4-methylpiperazin-1-yl)methyl)phenyl)ethynyl)-4-(1-oxa-7-azaspiro[3.5]nonan-7-yl)pyridin-2-yl)pyrimidin-4-amine]	0.3 nM	0.3 nM	> 10000 nM	1.9 nM	5.1 nM	1.4 nM	0.8 nM	0.1 nM	0.9 nM	0.9 nM
COC1(O)CCN(c2cc(Nc3ccnc(-c4cnn(S(=O)(=O)C5CC5)c4)n3)ncc2C#CC2CCN(C)C2)CC1 (stereo not drawn) [Example 371, 1-(2-((2-(1-(Cyclopropylsulfonyl)-1H-pyrazol-4-yl)pyrimidin-4-yl)amino)-5-((1-methylpyrrolidin-3-yl)ethynyl)pyridin-4-yl)-4-methoxypiperidin-4-ol]	0.3 nM	0.3 nM	3730 nM	9.4 nM	53.2 nM	3.3 nM	0.4 nM	0.1 nM	2.5 nM	1.5 nM
CN1CCC(C#Cc2cnc(Nc3ccnc(-c4cnn(S(=O)(=O)C5CC5)c4)n3)cc2N2CCC3(CCCO3)CC2)C1 (stereo not drawn) [Example 372, 2-(1-(Cyclopropylsulfonyl)-1H-pyrazol-4-yl)-N-(5-((1-methylpyrrolidin-3-yl)ethynyl)-4-(1-oxa-8-azaspiro[4.5]decan-8-yl)pyridin-2-yl)pyrimidin-4-amine]	0.3 nM	0.2 nM	5110 nM	5.5 nM	22.9 nM	1 nM	0.3 nM	0.1 nM	1.6 nM	0.8 nM
